Assay results published in patent publication US10583127B2, “Amine salt of (1R, 3S)-3-(5-cyano-4-phenyl-1,3- thiazol-2-ylcarbamoyl)cyclopentane carboxylic acid” (PALOBIOFARMA, S.L., priority 2017, dated 2020).
“Also recorded” adds a separate entry of the source. Like-named read-outs stand apart in the source and are kept apart here.

What was measured:
[1] = Hygroscopicity study by Dynamic Vapour Sorption (DVS) profiles; type: physicochemical; conditions: for moisture content at 25% RH / moisture content at 55% RH / moisture content at 75% RH (variation in the moisture content): DVS sorption isotherm at 25° C.
Procedure: Hygroscopicity studies of salts were carried out by preparation of Dynamic Vapour Sorption (DVS) profiles, with a TA instrument Q5000 apparatus. After an initial stabilization period (samples are pre-dried at 60° C. under vacuum), isotherms (at 25° C.) were obtained for each sample: a moisture sorption from 0 to 95% relative humidity (RH) and moisture desorption from 95% RH to dryness. Both isotherms were performed in 5% and 10% humidity steps.
The relative humidity (RH) was controlled by a mixture of wet and dry nitrogen stream. The RH was held constant until the equilibrium had been obtained (constant weight) or until the maximum time has been reached, before changing the RH to the next level.

[2] = Stability study under forced conditions (one week at 40° C. and 70% RH, XRPD check); type: physicochemical
Procedure: Stability studies under forced conditions were carried out by keeping the product under study for one week at 40° C. and 70% RH. Salts were analyzed by XRPD to check any change in the crystalline form.

[3] = Solubility screen assay (nephelometry); conditions: 37° C.
Procedure: (§1) Solubility screen assays were carried out as following: stock solutions (10^−2M) of the assayed compounds were diluted to decreased molarity from 500 μM to 0.256 nM, in 384 well transparent plate (Greiner 781101) with 5% DMSO: 95% PBS buffer. Samples were incubated at 37° C. and read after 2 and 4 hours in a NEPHELOstar Plus (BMGLABTECH).

[4] = Oral bioavailability assay: plasma pharmacokinetics after single IV and PO administration; conditions: male SD rats
Procedure: (§2) Animals were divided into two groups: Group 1 (IV: 1 mg/kg) and Group 2 (PO: 5 mg/kg). […] The blood samples were collected from set of three rats at each time point in labeled micro centrifuge tube containing K2EDTA solution as anticoagulant at Pre-dose, 0.083, 0.25, 0.5, 1, 2, 4, 8 and 24 hr (IV) and Pre-dose, 0.25, 0.5, 1, 2, 4, 6, 8 and 24 hr (PO). Plasma samples were separated by centrifugation of whole blood and stored below −70±10° C. until bioanalysis. All samples were processed for analysis by protein precipitation using acetonitrile and analyzed with fit-for-purpose LC-MS/MS method (LLOQ=1.00 ng/ml). Pharmacokinetic parameters were calculated using the non-compartmental analysis tool of Phoenix WinNonlin® (Version 6.3).
(§3) AUC last refers to the area under the curve from the time of dosing to the time of last observation that is greater than the limit of quantitation.
(§4) Clearance refers to the measurement of the ability of the body to remove drug from the plasma, and is calculated from the intravenous dosing.
(§5) F % refers to the bioavailability. The systemic availability of a compound after oral administration is calculated using the following equation: F(%)=(AUClast PO×Dose IV/AUClast IV×Dose PO)×100

in vivo = conditions: male, SD, rat
Procedure: as §2, §3, §4, §5

physchem = conditions: 37 °C, aqueous with cosolvent or surfactant or cyclodextrin, kinetic from dmso stock
Procedure: as §1

[5] = listed as (1R-3S)-3-(5-cyano-4-phenyl-1,3-thiazol-2-ylcarbamoyl)cyclopentane carboxylic ac
[6] = DVS, usual drug storage conditions (<75% RH)

N#Cc1sc(NC(=O)[C@H]2CC[C@@H](C(=O)O)C2)nc1-c1ccccc1 [(1R,3S)-3-(5-cyano-4-phenyl-1,3-thiazol-2-ylcarbamoyl)cyclop] [1,3-dihydroxy-2-(hydroxymethyl)propan-2-aminium (1R,3S)-3-((5-cyano-4-phenylthiazol-2-yl)carbamoyl)cyclopentane-1-carboxylate]
moisture content at 25% RH [1, 5]: 0.0722%
moisture content at 55% RH [1, 5]: 0.1165%
moisture content at 75% RH (variation in the moisture content) [1, 5]: 0.2096%
moisture content at 75% RH (variation in the moisture content) ([1]; listed as tromethamine salt): 0.17%
hygroscopicity (result in words) [1, 6]: less hygroscopic than the free acid form
hygroscopicity (result in words) ([1]; DVS, usual drug storage conditions (<75% RH), listed as tromethamine salt): less hygroscopic than free acid
stability under forced conditions (result in words) [2]: no cristallinity changes, colour or any other change in the aspect were observed; also recorded: stable solid, even under forced stability conditions
solubility compared with other salts and free acid [3]: higher solubility compared to others salts
AUC last ([4]; iv 1 mg/Kg, plasma, 1 mg/kg): 2373.87 ng·h/mL
clearance ([4]; iv 1 mg/Kg, 1 mg/kg): 7.11 mL/min/kg

N#Cc1sc(NC(=O)[C@H]2CC[C@@H](C(=O)O)C2)nc1-c1ccccc1 [(1R,3S)-3-(5-cyano-4-phenyl-1,3-thiazol-2-ylcarbamoyl)cyclop] [(1R,3S)-3-(5-cyano-4-phenyl-1,3-thiazol-2-ylcarbamoyl)cyclopentane carboxylic acid]
moisture content at 25% RH [1]: 0.1283%
moisture content at 55% RH [1]: 0.3008%
moisture content at 75% RH (variation in the moisture content) [1]: 0.4369%
moisture content at 75% RH (variation in the moisture content) ([1]; listed as free acid): 0.43%
hygroscopicity (result in words) [1, 6]: exhibits certain levels of hygroscopicity

N#Cc1sc(NC(=O)[C@H]2CC[C@@H](C(=O)O)C2)nc1-c1ccccc1 [(1R,3S)-3-(5-cyano-4-phenyl-1,3-thiazol-2-ylcarbamoyl)cyclopentane carboxylic acid]
AUC(0-t) ([4]; male, SD, rat, plasma, iv, 1 mg/kg, AUC last, iv 1 mg/Kg): 2200 ng·h/mL
clearance ([4]; male, SD, rat, plasma, iv, 1 mg/kg, Clearance, iv 1 mg/Kg): 6.3 mL/min/kg

CCNCC.N#Cc1sc(NC(=O)[C@H]2CC[C@@H](C(=O)O)C2)nc1-c1ccccc1 [Diethylammonium (1R,3S)-3-((5-cyano-4-phenylthiazol-2-yl)carbamoyl)cyclopentane-1-carboxylate]
stability under forced conditions (result in words) [2]: showed some degradation
clearance ([4]; iv 1 mg/Kg): 5.02 mL/min/kg
AUC last ([4]; iv 1 mg/Kg, plasma): 3383.00 ng·h/mL
F % (bioavailability) ([4]; po 5 mg/Kg vs iv 1 mg/Kg, from AUClast): 68%
AUC last ([4]; po 5 mg/Kg, plasma): 11580.30 ng·h/mL
Cmax ([4]; po 5 mg/Kg, solution in normal saline, plasma): 5906.53 ng/mL

N#Cc1sc(NC(=O)[C@H]2CC[C@@H](C(=O)[O-])C2)nc1-c1ccccc1.[Na+] [Sodium (1R,3S)-3-((5-cyano-4-phenylthiazol-2-yl)carbamoyl)cyclopentane-1-carboxylate]
hygroscopicity (result in words) [1, 6]: showed evident hygroscopicity
stability under forced conditions (result in words) [2]: did not have good stability, changed color
AUC(0-t) (in vivo; iv, 1 mg/kg): 5090 ng·h/mL
clearance (in vivo; iv, 1 mg/kg): 3.31 mL/min/kg
AUC(0-t) (in vivo; po, 5 mg/kg): 21600 ng·h/mL
Cmax (in vivo; po, 5 mg/kg): 13200 ng/mL
bioavailability (in vivo; po, 5 mg/kg): 85%
solubility (physchem): 36.3 µM

Magnesium (1R,3S)-3-((5-cyano-4-phenylthiazol-2-yl)carbamoyl)cyclopentane-1-carboxylate
hygroscopicity (result in words) [1]: very hygroscopic
moisture content at 25% RH [1]: 4.929%
moisture content at 55% RH [1]: 11.27%
moisture content at 75% RH (variation in the moisture content) [1]: 18.11%
moisture content at 75% RH (variation in the moisture content) ([1]; listed as magnesium salt): 18%
